The source of these data is patent US20250288584A1, “COMBINATIONS COMPRISING POSITIVE ALLOSTERIC MODULATORS OR ORTHOSTERIC AGONISTS OF METABOTROPIC GLUTAMATERGIC RECEPTOR SUBTYPE 2 AND THEIR USE” (JANSSEN PHARMACEUTICA NV, priority 2014, published 2025).

Entries after “also recorded” stand apart in the source; their conditions may differ. Where two headings read alike, the source gives them in different places.

The subject of assay [1] is 6 Hz (44 mA) psychomotor seizures. In words: 6 Hz psychomotor seizure test, 44 mA (alone, combination with LEV, isobolographic study). The format is in vivo, mice. In short, it runs like this: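 Mice dosed s.c. or p.o. at 0.01 mL/g, alone or with LEV at fixed dose ratios proportional to ED50 values. Focal seizures induced by corneal stimulation (6 Hz, 0.2 msec pulse, 3 sec, 44 mA); animals without stun, forelimb clonus, vibrissae twitch or Straub-tail were counted as protected. ED50 values derived, with combinations analysed isobolographically.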

For another assay, the system named is corneal kindled seizures. In words: Mouse corneal kindling model. The format is in vivo, mice. The note with it: for Mean Seizure Score: Racine 0 to 5. The protocol:
After the mice reached a stable kindled state, the test compound or vehicle was administered and, at the previously determined TPE, each animal was given the electrical stimulus indicated above. […] One dose of LEV and two doses of Co.

The target in another assay is T1, human mGlu2 receptor (Homo sapiens, UniProt Q14416).
T1 construct: expressed in transfected cells; host or cells: CHO cells
T1 sequence (Q14416 19-872): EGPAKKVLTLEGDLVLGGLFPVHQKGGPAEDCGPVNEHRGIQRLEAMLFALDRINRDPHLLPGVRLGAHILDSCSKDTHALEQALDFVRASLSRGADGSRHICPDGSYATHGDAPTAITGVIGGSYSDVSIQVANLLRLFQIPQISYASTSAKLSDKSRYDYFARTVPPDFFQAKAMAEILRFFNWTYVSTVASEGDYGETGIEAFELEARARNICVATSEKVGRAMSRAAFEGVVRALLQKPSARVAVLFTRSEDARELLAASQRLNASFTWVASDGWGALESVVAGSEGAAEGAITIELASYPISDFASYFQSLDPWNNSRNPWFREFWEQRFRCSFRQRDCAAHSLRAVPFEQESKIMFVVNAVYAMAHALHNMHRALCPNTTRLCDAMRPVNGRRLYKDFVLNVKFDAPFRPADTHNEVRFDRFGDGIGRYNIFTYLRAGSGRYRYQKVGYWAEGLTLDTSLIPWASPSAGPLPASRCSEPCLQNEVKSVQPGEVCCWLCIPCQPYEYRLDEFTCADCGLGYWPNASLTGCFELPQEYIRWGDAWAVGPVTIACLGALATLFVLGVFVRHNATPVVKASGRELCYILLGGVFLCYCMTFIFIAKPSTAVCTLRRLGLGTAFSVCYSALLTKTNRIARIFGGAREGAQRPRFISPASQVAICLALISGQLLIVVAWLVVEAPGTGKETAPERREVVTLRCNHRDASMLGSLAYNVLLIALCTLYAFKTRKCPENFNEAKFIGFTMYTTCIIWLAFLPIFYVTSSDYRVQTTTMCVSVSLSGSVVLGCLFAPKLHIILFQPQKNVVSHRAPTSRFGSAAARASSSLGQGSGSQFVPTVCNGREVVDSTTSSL
As to the kind of experiment: [35S]GTPγS binding assay, mGluR2 PAM. The format is biochemical. The following applies: for Emax: maximal % effect relative to control glutamate response, EC20 glutamate, read-out: GTPγS-hmGluR2 PAM Emax. On the technique in general: GTPγS is a poorly hydrolysed GTP analogue; its binding reports G protein activation.

Assay [2] relates to pentylenetetrazol seizures. The note with it: in vivo; cited from earlier work.

As usually defined, the ED50 is the dose that gives a 50% effect, or the effect in half of the subjects. Turning to `Fc1ccc(N2CCN(Cc3ccn4c(CC5CC5)nnc4c3C(F)(F)F)CC2)c(F)c1` [Co. No. 1], the responders at 2.5 mg/kg in assay [1] (Mus musculus, sc, 0.5 h, 2.5 mg/kg s.c., 0.5 h, read-out: # protected/# tested) amounted to 0%. Also, the responders at 10 mg/kg in assay [1] (Mus musculus, sc, 0.5 h, 10 mg/kg s.c., 0.5 h, read-out: # protected/# tested (converted)) was 50%. In assay [1] (Mus musculus, sc, 0.5 h, 15 mg/kg s.c., 0.5 h, read-out: # protected/# tested (converted)), the responders at 15 mg/kg is 87.5%. In addition, in assay [1] (Mus musculus, sc, 0.5 h, 20 mg/kg s.c., 0.5 h, read-out: # protected/# tested (converted)), the responders at 20 mg/kg was 100%. For the same molecule, the ED50 in assay [1] (Mus musculus, sc, at TPE, compound alone, read-out: ED50 (95% CI) 44 mA) is 10.2 mg/kg. Also, the “ED50 (95% CI) 44 mA” value in assay [1] (s.c., at TPE, compound alone) is 10.2 (3.1-12.4) mg/kg. In the assay on corneal kindled seizures (20 mg/kg s.c., Racine score 0-5), the “Seizure score (dose) Corneal kindling / Mean Seizure Score” value is 3.7. Further, in the assay with corneal kindled seizures (Co. No. 1 20 mg/kg), the “# protected/# tested” value is recorded as 5/16 and the “% Protected” value came out at 31%. Besides, in the assay with corneal kindled seizures (Co. No. 1 30 mg/kg), the “# protected/# tested” value is given as 3/12, the “% Protected” value was found to be 25% and the “Mean Seizure Score” value is listed as 4.0.

Broadly, the Emax is the size of the effect at its maximum, as opposed to the concentration needed. Regarding `C[C@H](Oc1ccc(F)cc1F)c1ccn2c(CC3CC3)nnc2c1C(F)(F)F` [Co. No. 6-b, 3-(Cyclopropylmethyl)-7-[(1S)-1-(2,4-difluorophenoxy)ethyl]-8-(trifluoromethyl)[1,2,4]triazolo[4,3-a]pyridine], the Emax at human mGlu2 receptor amounted to 256%. In addition, the “activity when administered alone” value in assay [1] (10 mg/kg p.o.) is given as “did not protect; also recorded: Co. No. 6-b 10 mg/kg, not active when administered alone”. Moreover, the responders at 10 mg/kg in assay [1] (Mus musculus, po, 0.5 h, 10 mg/kg p.o., 0.5 h, read-out: # protected/# tested (converted)) is 0%. For the same molecule, the responders at 15 mg/kg in assay [1] (Mus musculus, po, 0.5 h, 15 mg/kg p.o., 0.5 h, read-out: # protected/# tested (converted)) is 50%. In addition, the responders at 20 mg/kg in assay [1] (Mus musculus, po, 0.5 h, 20 mg/kg p.o., 0.5 h, read-out: # protected/# tested (converted)) was 75%. Further, the responders at 40 mg/kg in assay [1] (Mus musculus, po, 0.5 h, 40 mg/kg p.o., 0.5 h, read-out: # protected/# tested (converted)) is 100%. Moreover, in assay [1] (Mus musculus, po, 0.5 h, p.o., 0.5 h TPE, read-out: ED50 (95% CI) 44 mA), the ED50 turned out to be 16.1 mg/kg. For the same molecule, the “ED50 (95% CI) 44 mA” value in assay [1] (p.o., 0.5 h TPE) is 16.1 (13.0-20.1) mg/kg.

Turning to `CCCCn1ccc(N2CCC(c3ccc(F)cc3F)CC2)c(Cl)c1=O` [Co. No. 25-a], at human mGlu2 receptor (in presence of EC20 glutamate, read-out: GTPγS-hmGluR2 PAM pEC50 (converted)), the EC50 was 85.1 nM. The Emax at human mGlu2 receptor came out at 261%. Moreover, in assay [1] (10 mg/kg s.c.), the “activity when administered alone” value is “did not protect; also recorded: Co. No. 25-a (s.c.) 10 mg/kg tested in combination with LEV (i.p.)-Co. No. 25-a 10 mg/kg, not active when administered alone”. Moreover, the responders at 5 mg/kg in assay [1] (Mus musculus, sc, 0.25 h, 5 mg/kg s.c., 0.25 h, read-out: # protected/# tested) came to 0%. In addition, the responders at 10 mg/kg in assay [1] (Mus musculus, sc, 0.25 h, 10 mg/kg s.c., 0.25 h, read-out: # protected/# tested (converted)) is 0%. In addition, the responders at 20 mg/kg in assay [1] (Mus musculus, sc, 0.25 h, 20 mg/kg s.c., 0.25 h, read-out: # protected/# tested (converted)) was 25%. In addition, the responders at 30 mg/kg in assay [1] (Mus musculus, sc, 0.25 h, 30 mg/kg s.c., 0.25 h, read-out: # protected/# tested (converted)) is 37.5%. The responders at 40 mg/kg in assay [1] (Mus musculus, sc, 0.25 h, 40 mg/kg s.c., 0.25 h, read-out: # protected/# tested (converted)) was 87.5%. Also, the ED50 in assay [1] (Mus musculus, sc, 0.25 h, s.c., 0.25 hr TPE, read-out: ED50 (95% CI) 44 mA) turned out to be 29.1 mg/kg; in assay [1] (Mus musculus, sc, 1 h, s.c., 1 hr TPE, read-out: ED50 (95% CI) 44 mA), 25.9 mg/kg. In addition, the “ED50 (95% CI) 44 mA” value in assay [1] (s.c., 0.25 hr TPE) was “ED50 (95% CI): 29.1 mg/kg (21.6 to 39.6)”; in assay [1] (s.c., 1 hr TPE) it was 1 hr TPE: 25.9 mg/kg.

As to `CC[C@@H](C(N)=O)N1CCCC1=O` [LEV, (S)-2-(2-oxopyrrolidin-1-yl) butanamide, reference compound], the “# protected/# tested” value in assay [1] (LEV (low-dose) control group 25 mg/kg) is given as 1/8; in assay [1] (LEV alone 10 mg/kg i.p., 1 h) it was “⅙”; with corneal kindled seizures (LEV 3 mg/kg), 5/13. Further, the responders at 200 mg/kg in assay [1] (Mus musculus, 6 Hz (44 mA), LEV alone 200 mg/kg, read-out: # protected/# tested (converted)) is 25%; in assay [1] (Mus musculus, ip, LEV alone 200 mg/kg i.p., read-out: # protected/# tested (converted)), 25%. Besides, the responders at 400 mg/kg in assay [1] (Mus musculus, 6 Hz (44 mA), LEV alone 400 mg/kg, read-out: # protected/# tested (converted)) is 44.4%; in assay [1] (Mus musculus, ip, LEV alone 400 mg/kg i.p., read-out: # protected/# tested (converted)), 44.4%. For the same molecule, the responders at 800 mg/kg in assay [1] (Mus musculus, 6 Hz (44 mA), LEV alone 800 mg/kg, read-out: # protected/# tested (converted)) is 83.3%; in assay [1] (Mus musculus, ip, LEV alone 800 mg/kg i.p., read-out: # protected/# tested (converted)), 83.3%. Besides, the ED50 was 345 mg/kg in assay [1] (Mus musculus, ip, 1 h, 6 Hz (44 mA), LEV alone, i.p., 1 h TPE, read-out: LEV ED50 (95% CI)) and roughly 345 mg/kg in assay [1] (Mus musculus, ip, 1 h, i.p., 1 h TPE, read-out: ED50 (95% CI) 44 mA, LEV alone). Moreover, the responders at 10 mg/kg in assay [1] (Mus musculus, ip, 1 h, LEV alone 10 mg/kg i.p., 1 h, read-out: # protected/# tested (converted)) was 16.7%. Moreover, the responders at 350 mg/kg in assay [1] (Mus musculus, ip, LEV alone 350 mg/kg i.p., read-out: # protected/# tested (converted)) is 37.5%. In assay [1] (compound alone), the “Maximum Effect (% Protection)” value worked out at 75%. Moreover, in assay [2], the “activity in pentylenetetrazol seizure test” value is “no activity”. Moreover, the “% Protected” value with corneal kindled seizures (LEV 3 mg/kg) worked out at 38%. Besides, the “Mean Seizure Score” value with corneal kindled seizures (LEV 3 mg/kg) was 3.3.
